pIC50: −log10 of the molar value. In brackets after ≈: the same amount, converted by molar mass. Several values for one entry are separate records, joined by “and”; a condition that tells them apart may be missing. Equal values may be shown once. Read-outs that look alike come from different tables or passages of the source.
Columns and labels:
DNA polymerase α = target: T1, DNA polymerase α (Bos taurus, UniProt A0AAA9TD94); assay: DNA polymerase assay, pol. α; assay type: biochemical, calf; conditions: Table I; for pIC50: 50%-inhibitory concentration; for MIC Pol. α: Minimum inhibitory concentration: dose that resulted in inhibition of 80% or more of the activity
T1 sequence (A0AAA9TD94 1-1441): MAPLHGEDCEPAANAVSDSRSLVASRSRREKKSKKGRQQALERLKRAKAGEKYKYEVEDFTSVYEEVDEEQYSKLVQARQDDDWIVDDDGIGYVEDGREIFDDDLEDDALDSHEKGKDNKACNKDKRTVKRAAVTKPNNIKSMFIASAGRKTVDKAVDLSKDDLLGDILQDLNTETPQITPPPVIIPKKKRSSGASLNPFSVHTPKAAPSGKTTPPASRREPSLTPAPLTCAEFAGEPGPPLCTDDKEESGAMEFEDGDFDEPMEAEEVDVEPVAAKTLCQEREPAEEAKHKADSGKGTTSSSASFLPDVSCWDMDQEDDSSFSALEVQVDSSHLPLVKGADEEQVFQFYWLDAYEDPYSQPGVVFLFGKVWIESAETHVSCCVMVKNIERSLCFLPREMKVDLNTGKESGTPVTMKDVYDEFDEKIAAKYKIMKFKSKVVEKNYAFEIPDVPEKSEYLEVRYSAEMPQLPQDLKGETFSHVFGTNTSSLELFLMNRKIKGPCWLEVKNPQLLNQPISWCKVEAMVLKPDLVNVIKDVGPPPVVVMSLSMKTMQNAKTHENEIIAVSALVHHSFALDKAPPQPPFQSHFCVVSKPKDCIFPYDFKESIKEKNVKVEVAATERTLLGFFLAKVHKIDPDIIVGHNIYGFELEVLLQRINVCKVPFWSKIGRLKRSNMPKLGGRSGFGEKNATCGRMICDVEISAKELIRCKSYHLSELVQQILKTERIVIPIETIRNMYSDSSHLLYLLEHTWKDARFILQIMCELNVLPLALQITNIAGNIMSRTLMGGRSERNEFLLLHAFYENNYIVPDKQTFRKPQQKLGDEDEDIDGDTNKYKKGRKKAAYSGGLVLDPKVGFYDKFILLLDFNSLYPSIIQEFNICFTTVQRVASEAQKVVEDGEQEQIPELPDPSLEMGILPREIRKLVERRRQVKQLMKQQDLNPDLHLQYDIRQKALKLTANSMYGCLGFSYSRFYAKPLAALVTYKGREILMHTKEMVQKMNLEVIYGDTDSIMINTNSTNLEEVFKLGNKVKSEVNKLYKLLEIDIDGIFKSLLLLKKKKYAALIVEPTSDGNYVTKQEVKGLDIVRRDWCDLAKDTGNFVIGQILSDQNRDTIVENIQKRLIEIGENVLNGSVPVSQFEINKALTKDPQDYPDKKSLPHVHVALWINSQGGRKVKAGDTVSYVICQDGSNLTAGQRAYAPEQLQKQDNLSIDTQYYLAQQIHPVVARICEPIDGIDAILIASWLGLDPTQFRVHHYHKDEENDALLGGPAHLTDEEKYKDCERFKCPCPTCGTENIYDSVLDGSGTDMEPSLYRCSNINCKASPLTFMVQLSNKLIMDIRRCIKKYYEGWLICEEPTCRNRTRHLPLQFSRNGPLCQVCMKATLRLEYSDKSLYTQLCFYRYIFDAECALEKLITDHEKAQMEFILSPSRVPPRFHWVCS

DNA polymerase β = DNA polymerase β (Rattus norvegicus, UniProt P06766); assay: DNA polymerase assay, pol. β; assay type: biochemical; conditions: for MIC Pol. β: Minimum inhibitory concentration: dose that resulted in inhibition of 80% or more of the activity
[1] = read-out: IC50 Pol. β, 50%-inhibitory concentration, Table I

Row | pIC50 (DNA polymerase β) | pIC50 (DNA polymerase β; [1]) | MIC Pol. β (DNA polymerase β; Table I) [µM] | Structure (SMILES) | pIC50 (DNA polymerase α; IC50 Pol. α) | pIC50 (DNA polymerase α; read-out: IC50 Pol. α) | MIC Pol. α (DNA polymerase α) [µM]
1 | – | < 3.00 | – | C[C@@H]1OC(O)[C@H](O)[C@H](O)[C@H]1O (stereo partly shown) [II - Rhamnose - -, Rhamnose] | – | < 3.00 | –
2 | – | < 3.00 | – | C[C@@H]1OC(OCC(O)CO)[C@@H](O)[C@H](O)[C@@H]1O (stereo partly shown) [II&III - Fucose + -] | – | < 3.00 | –
3 | – | < 3.00 | – | CCCCCCCCCCCCCC(=O)OCC(O)CO (stereo not shown) [III&IV - - + Myristic acid (14:0)/H] | – | 3.12 | > 1000
4 | – | < 3.00 | – | CCCCCCCCCCCCCCCCCC(=O)OCC(O)CO (stereo not shown) [III&IV - - + Stearic acid (18:0)/H] | – | 3.19 | > 1000
5 | 3.36 | – | > 1000 | CCCCCCCCCCCCCC(=O)O [Myristic acid (14:0), Myristic acid, reference compound] | 4.02 | – | 180 (≈ 41.1 µg/mL)
6 | 3.54 | – | 500 (≈ 128 µg/mL) | CCCCCCCCCCCCCCCC(=O)O [Palmitic acid (16:0), Palmitic acid, reference compound] | 4.38 | – | 100 (≈ 25.6 µg/mL)
7 | 3.89 | – | 250 (≈ 71.1 µg/mL) | CCCCCCCCCCCCCCCCCC(=O)O [Stearic acid (18:0), Stearic acid, reference compound] | 4.92 and 5.10 | – | 35 (≈ 9.96 µg/mL)

Row | Structure (SMILES) | pIC50 (DNA polymerase β) | pIC50 (DNA polymerase β; [1]) | MIC Pol. β (DNA polymerase β; Table I) [µM] | pIC50 (DNA polymerase α; IC50 Pol. α) | pIC50 (DNA polymerase α; read-out: IC50 Pol. α) | MIC Pol. α (DNA polymerase α) [µM]
8 | C[C@H]1OC(O)[C@H](O)[C@@H](O)[C@@H]1O (stereo partly shown) [II - Quinovose - -, Quinovose] | < 3.00 | – | – | < 3.00 | – | –
9 | C[C@H]1OC(OCC(O)CO)[C@H](O)[C@@H](O)[C@@H]1O (stereo partly shown) [II&III - Quinovose + -] | – | < 3.00 | – | – | < 3.00 | –
10 | C[C@@H]1OC(OCC(O)CO)[C@H](O)[C@H](O)[C@H]1O (stereo partly shown) [II&III - Rhamnose + -] | – | < 3.00 | – | – | < 3.00 | –

From paper PMC5926251 (Japanese Journal of Cancer Research : Gann, 2000)
